Here are results for 39 compounds from patent US12006294B2, “Therapeutic compounds” (REGENTS OF THE UNIVERSITY OF MINNESOTA, priority 2017, dated 2024).

Structures can show the parent of a compound that is named as a salt. Where two headings read alike, the source gives them in different places.

The subject of the assay is Hela Cells. Briefly: Cellular ER stress model (tunicamycin, WST-8 cell viability). The settings on record: Homo sapiens, HeLa, 48 h. Background: Tetrazolium assays rely on reduction of a dye to a coloured formazan, in cell work by metabolically active cells.
Where [1] appears, read: read-out: % Cell Survival Cmpd(2.5 μM) + Tuni.
Setting [2] is: read-out: Compounds ERS (vs Tn).
[3] abbreviates: read-out: % Cell Survival Cmpd(2.5 μM) + Tuni, Hela cells, compound 2.5 μM + tunicamycin, WST-8 viability 48 hours after tunicamycin treatment.
Setting [4] is: read-out: Compounds ERS (vs Tn), ERS activity vs Tuni = % cell survival (compound)/% cell survival (tunicamycin), compound 2.5 μM.

Consider `N=C(N)N/N=C/c1c(O)cccc1Cl` [BC2-59-2], for which the viability at 2.5 µM reads like this: under setting [1], 39%; under setting [2], 94%.
For `NC(=S)N/N=C/c1c(F)cccc1Cl` [JM1-113-2, (E)-2-(2-chloro-6-fluorobenzylidene)hydrazine-1-carbothioamide], the viability at 2.5 µM is, setting by setting: under setting [3], 27.6%; under setting [4], 40%.
For `Cc1cccc(C)c1/C=N/NC(N)=S` [JM1-121-2, (E)-2-(2,6-dimethylbenzylidene)hydrazine-1-carbothioamide] the same measures were 23.4% and 34%.
For the compound `NC(=S)N/N=C/c1ccc2ccccc2c1` [JM1-129-2, (E)-2-(naphthalen-2-ylmethylene)hydrazine-1-carbothioamide], the viability at 2.5 µM amounted to 24.1% under setting [3] and 35% under setting [4].
Regarding `N=C(N)N/N=C/c1c(Br)cccc1[N+](=O)[O-]` [JM1-175-2, (E)-2-(2-bromo-6-nitrobenzylidene)hydrazine-1-carboximidamide acetate], the viability at 2.5 µM is 44.9% under setting [3] and 65% under setting [4].
On to `N=C(N)N/N=C/c1cc(F)ccc1Cl` [JM1-185-2, (E)-2-(2-chloro-5-fluorobenzylidene)hydrazine-1-carboximidamide acetate], for which the viability at 2.5 µM came to 54.4% under setting [3] and 79% under setting [4].
Consider `N=C(N)N/N=C/c1c(F)cccc1F` [JM1-191-2, (E)-2-(2,6-difluorobenzylidene)hydrazine-1-carboximidamide acetate], for which the viability at 2.5 µM runs as follows: under setting [3], 45.7%; under setting [4], 66%.
`Nc1ccnn1-c1c(Cl)cccc1Cl` [JM1-217-2, 1-(2,6-dichlorophenyl)-1H-pyrazol-5-amine]: the viability at 2.5 µM runs as follows: under setting [3], 40.6%; under setting [4], 97%.
As for `N=C(N)N/N=C/c1cc(C(F)(F)F)ccc1Cl` [JM1-221-2, (E)-2-(2-chloro-5-(trifluoromethyl)benzylidene)hydrazine-1-carboximidamide acetate], the viability at 2.5 µM is 38.6% under setting [3] and 56% under setting [4].
Taken in the same sequence, the figures for `N=C(N)N/N=C/c1c(F)cccc1C(F)(F)F` [JM1-223-2, (E)-2-(2-fluoro-6-(trifluoromethyl)benzylidene)hydrazine-1-carboximidamide acetate] were 37.5% and 54%.
Consider `CC/C(=N\NC(=N)N)c1cccc(Cl)c1` [JM1-257-2, (E)-2-(1-(3-chlorophenyl)propylidene)hydrazine-1-carboximidamide], for which the viability at 2.5 µM was 34.6% under setting [3] and 50% under setting [4].
`N=C(N)Nc1ccnn1-c1c(Cl)cccc1Cl` [JM1-285-2, 1-(1-(2,6-dichlorophenyl)-1H-pyrazol-5-yl)guanidine]: the viability at 2.5 µM runs as follows: under setting [3], 41.9%; under setting [4], 101%.
In the case of `Cc1cccc(C)c1NC1=NCCN1` [JM2-59-2, N-(2,6-dimethylphenyl)-4,5-dihydro-1H-imidazol-2-amine], the viability at 2.5 µM reads like this: under setting [1], 46.2%; under setting [2], 67%.
Regarding `COc1cc(Cl)c(/C=N/NC(=N)N)c(Cl)c1` [JM2-63-2, (E)-2-(2,6-dichloro-4-methoxybenzylidene)hydrazine-1-carboximidamide], the viability at 2.5 µM is 44.6% under setting [3] and 65% under setting [4].
Turning to `Clc1cccc(Cl)c1/C=N/NC1=NCCN1` [JM2-83-2, (E)-2-(2-(2,6-dichlorobenzylidene)hydrazinyl)-4,5-dihydro-1H-imidazole hydrochloride], the viability at 2.5 µM reads like this: under setting [3], 53.8%; under setting [4], 125%.
With `Cc1cccc(C)c1/C=N/NC1=NCCN1` [JM2-85-2, (E)-2-(2-(2,6-dimethylbenzylidene)hydrazinyl)-4,5-dihydro-1H-imidazole hydrochloride], the viability at 2.5 µM reads like this: under setting [3], 62.3%; under setting [4], 145%.
`Clc1cccc(Cl)c1CC1=NCCN1` [JM2-87-2, 2-(2,6-dichlorobenzyl)-4,5-dihydro-1H-imidazole]: the viability at 2.5 µM under setting [3] was determined as 54.3% and the viability at 2.5 µM under setting [4] stood at 124%.
For `O=[N+]([O-])c1cccc(Cl)c1/C=N/NC1=NCCN1` [JM2-89-2, (E)-2-(2-(2-chloro-6-nitrobenzylidene)hydrazinyl)-4,5-dihydro-1H-imidazole hydrochloride], the viability at 2.5 µM is, setting by setting: under setting [3], 56.9%; under setting [4], 130%.
As for `Clc1ccc(/C=N/NC2=NCCN2)cc1Cl` [JM2-91-2, (E)-2-(2-(3,4-dichlorobenzylidene)hydrazinyl)-4,5-dihydro-1H-imidazole hydrochloride], the viability at 2.5 µM under setting [3] was determined as 54.5% and the viability at 2.5 µM under setting [4] amounted to 124%.
On to `Fc1cccc(Cl)c1/C=N/NC1=NCCN1` [JM2-95-2, (E)-2-(2-(2-chloro-6-fluorobenzylidene)hydrazinyl)-4,5-dihydro-1H-imidazole hydrochloride], for which the viability at 2.5 µM reads like this: under setting [3], 53%; under setting [4], 121%.
As for `Clc1cccc(Cl)c1NC1=NCCN1` [JM2-97-2, N-(2,6-dichlorophenyl)-4,5-dihydro-1H-imidazol-2-amine hydrochloride], the viability at 2.5 µM by setting is: under setting [1], 63.1%; under setting [2], 147%.
On to `CC(C1=NCCN1)c1c(Cl)cccc1Cl` (stereo not drawn) [JM2-101-2, 2-(1-(2,6-dichlorophenyl)ethyl)-4,5-dihydro-1H-imidazole], for which the viability at 2.5 µM by setting is: under setting [3], 49.5%; under setting [4], 107%.
As for `Fc1cccc(F)c1/C=N/NC1=NCCN1` [JM2-103-2, (E)-2-(2-(2,6-difluorobenzylidene)hydrazinyl)-4,5-dihydro-1H-imidazole hydrochloride], the viability at 2.5 µM worked out at 48.7% under setting [3] and 105% under setting [4].
On to `O=[N+]([O-])c1cccc(Br)c1/C=N/NC1=NCCN1` [JM2-109-2, (E)-2-(2-(2-bromo-6-nitrobenzylidene)hydrazinyl)-4,5-dihydro-1H-imidazole hydrochloride], for which the viability at 2.5 µM runs as follows: under setting [3], 50.2%; under setting [4], 108%.
As for `Clc1ccccc1/C=N/NC1=NCCN1` [JM2-113-2, (E)-2-(2-(2-chlorobenzylidene)hydrazinyl)-4,5-dihydro-1H-imidazole hydrochloride], the viability at 2.5 µM by setting is: under setting [3], 35.2%; under setting [4], 111%.
Taken in the same sequence, the figures for `Fc1ccccc1/C=N/NC1=NCCN1` [JM2-115-2, (E)-2-(2-(2-fluorobenzylidene)hydrazinyl)-4,5-dihydro-1H-imidazole hydrochloride] were 35.6% and 112%.
Regarding `FC(F)(F)c1cccc(Cl)c1/C=N/NC1=NCCN1` [JM2-131-2, (E)-2-(2-(2-chloro-6-(trifluoromethyl)benzylidene)hydrazinyl)-4,5-dihydro-1H-imidazole hydrochloride], the viability at 2.5 µM reads like this: under setting [3], 62.6%; under setting [4], 198%.
For the compound `CNC(=N)N/N=C/c1c(Cl)cccc1Cl` [JM2-171-2, (E)-2-(2,6-dichlorobenzylidene)-N-methylhydrazine-1-carboximidamide hydroiodide], the viability at 2.5 µM by setting is: under setting [3], 67%; under setting [4], 212%.
Consider `N=C(N/N=C/c1c(Cl)cccc1Cl)Nc1ccccc1` [JM2-175-2, (E)-2-(2,6-dichlorobenzylidene)-N-phenylhydrazine-1-carboximidamide hydroiodide], for which the viability at 2.5 µM was 34.3% under setting [3] and 108% under setting [4].
For the compound `N=C(N)NNCc1c(Cl)cccc1Cl` [JM2-185-2], the viability at 2.5 µM reads like this: under setting [3], 31.7%; under setting [4], 100%.
For `Brc1ccccc1/C=N/NC1=NCCN1` [JM2-191-2, (E)-2-(2-(2-bromobenzylidene)hydrazinyl)-4,5-dihydro-1H-imidazole hydrochloride], the viability at 2.5 µM by setting is: under setting [3], 39.5%; under setting [4], 125%.
In the case of `N=C(N)N/N=C/c1c(Cl)cc(OCc2ccccc2)cc1Cl` [JM2-195-2, (E)-2-(4-(benzyloxy)-2,6-dichlorobenzylidene)hydrazine-1-carboximidamide acetate], the viability at 2.5 µM is, setting by setting: under setting [3], 24.1%; under setting [4], 76%.
Regarding `Cc1cc(=O)nc(N/N=C/c2c(F)cccc2Cl)[nH]1` [JM2-203-2, (E)-2-(2-(2-chloro-6-fluorobenzylidene)hydrazinyl)-6-methylpyrimidin-4(1H)-one], the viability at 2.5 µM by setting is: under setting [3], 19.7%; under setting [4], 103%.
Regarding `CCc1cccc(CC)c1/C=N/NC(=N)N` [JM2-233-2], the viability at 2.5 µM by setting is: under setting [3], 31.8%; under setting [4], 121%.
For the compound `Clc1cccc(Cl)c1/C=N/NC1=NCCCN1` [JM2-255-2, (E)-2-(2-(2,6-dichlorobenzylidene)hydrazinyl)-1,4,5,6-tetrahydropyrimidine hydrochloride], the viability at 2.5 µM came to 63.8% under setting [3] and 201% under setting [4].
`Cc1cccc(Cl)c1/C=N/NC1=NCCCN1` [JM2-265-2, (E)-2-(2-(2-chloro-6-methylbenzylidene)hydrazinyl)-1,4,5,6-tetrahydropyrimidine hydrochloride]: the viability at 2.5 µM was determined as 47.2% under setting [3] and 179% under setting [4].
On to `Clc1cccc(Cl)c1CC1=NCCCN1` [JM2-271-2, 2-(2,6-dichlorobenzyl)-1,4,5,6-tetrahydropyrimidine], for which the viability at 2.5 µM turned out to be 32.3% under setting [3] and 123% under setting [4].
Taken in the same sequence, the figures for `N=C(N)NC(=O)Cc1c(Cl)cccc1[N+](=O)[O-]` [JM2-275-2, N-carbamimidoyl-2-(2-chloro-6-nitrophenyl)acetamide hydrochloride] were 29.8% and 101%.
Take `N=C(N)N/N=C/c1cccs1` [JM2-279-2, (E)-2-(thiophen-2-ylmethylene)hydrazine-1-carboximidamide]: the viability at 2.5 µM runs as follows: under setting [3], 32.1%; under setting [4], 122%.
